Source: ChEMBL document CHEMBL1201862, “PubChem BioAssay data set” (2004)
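In this assay, cells in 96-well plates receive the compound at five concentrations for 48 hours. Endpoints are linearly interpolated between the surrounding concentrations. GI50: concentration for 50% inhibition of growth.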 Active and inactive are the calls of the source. Cut-off read from the data, not from the text of the source: active = GI50 up to about 1.1 µM and inactive = higher.

How the values were obtained:
Experiment in all cases: NCI anticancer screen, dose series, 48 h
[1] = test system: A498
[2] = test system: UACC-62
[3] = test system: SF-539
[4] = test system: KM12
[5] = test system: HCT-116
[6] = test system: DU-145
[7] = test system: T47D
[8] = test system: SNB-19
[9] = test system: NCI-H460
[10] = test system: COLO 205
[11] = test system: OVCAR-5
[12] = test system: EKVX
[13] = test system: OVCAR-8
[14] = test system: SF-268
[15] = test system: UO-31
[16] = test system: MDA-N
[17] = test system: SNB-75
[18] = test system: HOP-92
[19] = test system: MDA-MB-231
[20] = test system: MCF7
[21] = test system: HL-60
[22] = test system: Malme-3M
[23] = test system: HCC 2998
[24] = test system: U-251
[25] = test system: SK-MEL-5
[26] = test system: MOLT-4
[27] = test system: RXF 393
[28] = test system: SK-MEL-28
[29] = test system: RPMI-8226
[30] = test system: K562
[31] = test system: HCT-15
[32] = test system: A549
[33] = test system: MDA-MB-435
[34] = test system: SR
[35] = test system: OVCAR-3
[36] = test system: ACHN
[37] = test system: Hs-578T
[38] = test system: TK-10
[39] = test system: NCI-H522
[40] = test system: IGROV-1
[41] = test system: HT-29
[42] = test system: LOX IMVI
[43] = test system: M14
[44] = test system: NCI-H226
[45] = test system: SW-620
[46] = test system: CAKI-1
[47] = test system: SN12C
[48] = test system: NCI/ADR-RES
[49] = test system: NCI-H23
[50] = test system: SK-OV-3
[51] = test system: OVCAR-4
[52] = test system: CCRF-CEM
[53] = test system: BT-549
[54] = test system: PC-3
[55] = test system: SF-295
[56] = test system: 786-0
[57] = test system: SK-MEL-2
[58] = test system: UACC-257
[59] = test system: HOP-62

CCC(C)NC(=S)N/N=C(\C)c1nc2cccnc2[nH]1 (stereo not drawn)
GI50 [1]: 57.3 µM (inactive)
GI50 [2]: 6.11 µM (inactive)
GI50 [3]: 21.7 µM (inactive)
GI50 [4]: 15.9 µM (inactive)
GI50 [5]: 6.05 µM (inactive)
GI50 [6]: 16.9 µM (inactive)
GI50 [7]: 2.1 µM (inactive)
GI50 [8]: 32.4 µM (inactive)
GI50 [9]: 10 µM (inactive)
GI50 [10]: 3.54 µM (inactive)
GI50 [11]: 13.4 µM (inactive)
GI50 [12]: 6.73 µM (inactive)
GI50 [13]: 4 µM (inactive)
GI50 [14]: 8.36 µM (inactive)
GI50 [15]: 2.32 µM (inactive)
GI50 [16]: 47.4 µM (inactive)
GI50 [17]: 48.5 µM (inactive)
GI50 [18]: 7.18 µM (inactive)
GI50 [19]: 6.95 µM (inactive)
GI50 [20]: 2.1 µM (inactive)
GI50 [21]: 4.92 µM (inactive)
GI50 [22]: 6.73 µM (inactive)
GI50 [23]: 13.4 µM (inactive)
GI50 [24]: 9.14 µM (inactive)
GI50 [25]: 4.72 µM (inactive)
GI50 [26]: 3.6 µM (inactive)
GI50 [27]: 15.6 µM (inactive)
GI50 [28]: 33.9 µM (inactive)
GI50 [29]: 21.6 µM (inactive)
GI50 [30]: 2.24 µM (inactive)
GI50 [31]: 5.64 µM
GI50 [32]: 14.9 µM (inactive)
GI50 [33]: 31.3 µM (inactive)
GI50 [34]: 3.85 µM (inactive)
GI50 [35]: 3.25 µM (inactive)
GI50 [36]: 9.57 µM (inactive)
GI50 [37]: 19.3 µM (inactive)
GI50 [38]: 12.3 µM (inactive)
GI50 [39]: 7.87 µM (inactive)
GI50 [40]: 12.2 µM (inactive)
GI50 [41]: 4.49 µM (inactive)
GI50 [42]: 10.9 µM (inactive)
GI50 [43]: 12.7 µM (inactive)
GI50 [44]: 4.42 µM (inactive)
GI50 [45]: 4.52 µM (inactive)
GI50 [46]: 4.07 µM (inactive)
GI50 [47]: 21.6 µM (inactive)
GI50 [48]: 16.7 µM (inactive)
GI50 [49]: 41.6 µM (inactive)
GI50 [50]: 10.3 µM (inactive)
GI50 [51]: 4.91 µM (inactive)
GI50 [52]: 3.09 µM (inactive)
GI50 [53]: 13.5 µM (inactive)
GI50 [54]: 8.85 µM (inactive)
GI50 [55]: 5.53 µM (inactive)
GI50 [56]: 13.6 µM (inactive)
GI50 [57]: 5.92 µM (inactive)
GI50 [58]: 5.79 µM (inactive)
GI50 [59]: 7.78 µM (inactive)

NC(=S)NN=Cc1ccccc1OCc1cccc(COc2ccccc2C=NNC(N)=S)n1
GI50 [1]: 17.5 µM (inactive)
GI50 [2]: 19.3 µM (inactive)
GI50 [3]: 7.93 µM (inactive)
GI50 [4]: > 100 µM (inactive)
GI50 [5]: 32.7 µM (inactive)
GI50 [6]: 13.7 µM (inactive)
GI50 [7]: > 38.2 µM (inactive)
GI50 [8]: 9.89 µM (inactive)
GI50 [9]: > 58.6 µM (inactive)
GI50 [10]: > 87.7 µM (inactive)
GI50 [11]: 29.9 µM (inactive)
GI50 [12]: 10 µM (inactive)
GI50 [13]: 6.01 µM (inactive)
GI50 [14]: 5.46 µM (inactive)
GI50 [15]: 28.2 µM (inactive)
GI50 [16]: > 100 µM (inactive)
GI50 [17]: 1.78 µM (inactive)
GI50 [18]: 3.72 µM (inactive)
GI50 [19]: 6.92 µM (inactive)
GI50 [20]: > 100 µM (inactive)
GI50 [21]: > 100 µM (inactive)
GI50 [22]: > 54.3 µM (inactive)
GI50 [23]: > 100 µM (inactive)
GI50 [24]: 4.55 µM (inactive)
GI50 [25]: > 100 µM (inactive)
GI50 [26]: > 100 µM (inactive)
GI50 [27]: 2.4 µM (inactive)
GI50 [28]: > 100 µM (inactive)
GI50 [29]: > 100 µM (inactive)
GI50 [30]: > 100 µM (inactive)
GI50 [31]: > 61.2 µM
GI50 [32]: > 100 µM (inactive)
GI50 [33]: > 100 µM (inactive)
GI50 [34]: > 100 µM (inactive)
GI50 [35]: 42.1 µM (inactive)
GI50 [36]: 20.6 µM (inactive)
GI50 [37]: 18.1 µM (inactive)
GI50 [38]: 14.4 µM (inactive)
GI50 [39]: > 64.9 µM (inactive)
GI50 [40]: 13.7 µM (inactive)
GI50 [41]: > 100 µM (inactive)
GI50 [42]: > 100 µM (inactive)
GI50 [43]: > 100 µM (inactive)
GI50 [44]: > 34.4 µM (inactive)
GI50 [45]: > 96.4 µM (inactive)
GI50 [46]: > 100 µM (inactive)
GI50 [47]: > 79.3 µM (inactive)
GI50 [48]: 40.6 µM (inactive)
GI50 [49]: 29.8 µM (inactive)
GI50 [50]: 9.89 µM (inactive)
GI50 [51]: > 100 µM (inactive)
GI50 [52]: > 100 µM (inactive)
GI50 [53]: 13.6 µM (inactive)
GI50 [54]: > 57.7 µM (inactive)
GI50 [55]: 6.85 µM (inactive)
GI50 [56]: 12.4 µM (inactive)
GI50 [57]: 6.89 µM (inactive)
GI50 [58]: > 79.8 µM (inactive)
GI50 [59]: 6.56 µM (inactive)
